Results: US8227612B2, “Quinoline compound and pharmaceutical composition, preparation method and uses thereof” (Shanghai Institute of Pharmaceutical Industry, priority 2008, dated 2012)

Test system: hyperlipidemia quail
Experiment: Lipid-lowering in vivo experiments in hyperlipidemia quail
Conditions: for CHO / H/L / HDL-C / LDL-C / TG: oral, blood after four weeks hypercholesterol diet
Procedure: Lipid-lowering in vivo experiments are made in hyperlipidemia quail with the compounds [NT] according to the present invention. Atorvastatin (20 mg/kg) were used as the positive control. Two groups of dosage (Low: 5 mg/kg, High: 20 mg/kg) of the ten compounds of [NT] were tested. After one week feeding with normal diet, except for the normal control group, the model control group and the tested groups of quails were fed with hypercholesterol diet for four weeks, and then the blood was collected respectively for testing the content of […] including triglyceride, cholesterol, low density lipoprotein and high density lipoprotein.

[1] = oral administration, hyperlipidemia quail

CC(C)c1c(C(=O)Nc2ccccc2)c(-c2ccccc2)c(-c2ccc(F)cc2)n1CC[C@@H](O)C[C@@H](O)CC(=O)O [Atorvastatin, reference compound] gave a CHO (High: 20 mg/kg) of 6.51 mmol/L, a H/L (High: 20 mg/kg) of 2.19 and an HDL-C (High: 20 mg/kg) of 4.39 mmol/L. For the same compound, the LDL-C (High: 20 mg/kg) was 2.51 mmol/L and the TG (High: 20 mg/kg) was 0.76 mmol/L.
CC(C)Sc1ccc(-c2cc3c(-c4ccc(SC(C)C)cc4)c(/C=C/[C@@H](O)C[C@@H](O)CC(=O)O)cnc3c(-c3ccc(SC(C)C)cc3)c2-c2ccc(SC(C)C)cc2)cc1 [Compound A1, (3R,5S)-7-[4,6,7,8-tetra-(4-isopropylthiophenyl)quinoline-3-yl]-3,5-dihydroxy-6(E)-heptenoic acid] gave a CHO (High: 20 mg/kg) of 8.05 mmol/L, a H/L (High: 20 mg/kg) of 1.54 and an HDL-C (High: 20 mg/kg) of 5.31 mmol/L. For the same compound, the LDL-C (High: 20 mg/kg) was 3.63 mmol/L, the TG (High: 20 mg/kg) was 0.51 mmol/L and the CHO (Low: 5 mg/kg) was 8.72 mmol/L. The H/L (Low: 5 mg/kg) was 1.91, the HDL-C (Low: 5 mg/kg) was 5.84 mmol/L and the LDL-C (Low: 5 mg/kg) was 3.99 mmol/L. The TG (Low: 5 mg/kg) was 0.59 mmol/L and the “lipid-lowering effect (in words)” value [1] was “obvious lipid-lowering effect”.
In the case of COc1cccc(Sc2cc3ncc(/C=C/[C@@H](O)C[C@@H](O)CC(=O)[O-])c(Sc4cccc(OC)c4)c3cc2F)c1.COc1cccc(Sc2cc3ncc(/C=C/[C@@H](O)C[C@@H](O)CC(=O)[O-])c(Sc4cccc(OC)c4)c3cc2F)c1.[Ca+2] [Compound A5], the CHO (High: 20 mg/kg) is reported as 10.55 mmol/L, the H/L (High: 20 mg/kg) is reported as 1.06 and the HDL-C (High: 20 mg/kg) is reported as 5.35 mmol/L. It also gave an LDL-C (High: 20 mg/kg) of 6.40 mmol/L, a TG (High: 20 mg/kg) of 0.58 mmol/L and a CHO (Low: 5 mg/kg) of 9.66 mmol/L. The H/L (Low: 5 mg/kg) was 1.29, the HDL-C (Low: 5 mg/kg) was 5.35 mmol/L and the LDL-C (Low: 5 mg/kg) was 5.07 mmol/L. For the same compound, the TG (Low: 5 mg/kg) was 1.95 mmol/L and the “lipid-lowering effect (in words)” value [1] was “obvious lipid-lowering effect”.
CC(C)Sc1ccc(-c2c(/C=C/[C@@H](O)C[C@@H](O)CC(=O)[O-])cnc3c(F)c(F)c(F)cc23)cc1.CC(C)Sc1ccc(-c2c(/C=C/[C@@H](O)C[C@@H](O)CC(=O)[O-])cnc3c(F)c(F)c(F)cc23)cc1.[Ca+2] [Compound A6, (3R,5S)-7-[6,7,8-trifluoro-4-(4-isopropylthiophenyl)quinoline-3-yl]-3,5-dihydroxy-6(E)-heptenoic acid hemi calcium salt] was tested, and the CHO (High: 20 mg/kg) was 8.66 mmol/L, the H/L (High: 20 mg/kg) was 1.37 and the HDL-C (High: 20 mg/kg) was 4.74 mmol/L. The LDL-C (High: 20 mg/kg) was 3.66 mmol/L, the TG (High: 20 mg/kg) was 4.47 mmol/L and the CHO (Low: 5 mg/kg) was 8.65 mmol/L. It also gave a H/L (Low: 5 mg/kg) of 1.21, an HDL-C (Low: 5 mg/kg) of 4.89 mmol/L and an LDL-C (Low: 5 mg/kg) of 4.61 mmol/L. For the same compound, the TG (Low: 5 mg/kg) was 0.70 mmol/L and the “lipid-lowering effect (in words)” value [1] was “obvious lipid-lowering effect”.
Compound O=C([O-])C[C@H](O)C[C@H](O)/C=C/c1cnc2c(F)c(F)c(F)cc2c1Sc1ccc(F)cc1.O=C([O-])C[C@H](O)C[C@H](O)/C=C/c1cnc2c(F)c(F)c(F)cc2c1Sc1ccc(F)cc1.[Ca+2] [Compound A8] has a CHO (High: 20 mg/kg) of 5.57 mmol/L, a H/L (High: 20 mg/kg) of 2.21 and an HDL-C (High: 20 mg/kg) of 3.73 mmol/L. For the same compound, the LDL-C (High: 20 mg/kg) was 1.94 mmol/L, the TG (High: 20 mg/kg) was 0.45 mmol/L and the CHO (Low: 5 mg/kg) was 9.11 mmol/L. It also gave a H/L (Low: 5 mg/kg) of 1.58, an HDL-C (Low: 5 mg/kg) of 4.75 mmol/L and an LDL-C (Low: 5 mg/kg) of 3.46 mmol/L. The TG (Low: 5 mg/kg) was 1.50 mmol/L and the “lipid-lowering effect (in words)” value [1] was “obvious lipid-lowering effect”.
O=C([O-])C[C@H](O)C[C@H](O)/C=C/c1cnc2c(Oc3ccccc3)c(Oc3ccccc3)c(Oc3ccccc3)cc2c1Oc1ccccc1.O=C([O-])C[C@H](O)C[C@H](O)/C=C/c1cnc2c(Oc3ccccc3)c(Oc3ccccc3)c(Oc3ccccc3)cc2c1Oc1ccccc1.[Ca+2] [Compound A9, (3R,5S)-7-[4,6,7,8-tetra-phenoxyquinoline-3-yl]-3,5-dihydroxy-6(E)-heptenoic acid hemi calcium salt] showed a CHO (High: 20 mg/kg) of 9.18 mmol/L, a H/L (High: 20 mg/kg) of 1.54 and an HDL-C (High: 20 mg/kg) of 4.98 mmol/L. It also gave an LDL-C (High: 20 mg/kg) of 4.08 mmol/L, a TG (High: 20 mg/kg) of 1.26 mmol/L and a CHO (Low: 5 mg/kg) of 9.75 mmol/L. For the same compound, the H/L (Low: 5 mg/kg) was 1.56, the HDL-C (Low: 5 mg/kg) was 4.98 mmol/L and the LDL-C (Low: 5 mg/kg) was 5.16 mmol/L. For the same compound, the TG (Low: 5 mg/kg) was 1.24 mmol/L and the “lipid-lowering effect (in words)” value [1] was “obvious lipid-lowering effect”.
In the case of COc1cccc(Sc2c(/C=C/[C@@H](O)C[C@@H](O)CC(=O)[O-])cnc3cc(Cl)c(F)cc23)c1.COc1cccc(Sc2c(/C=C/[C@@H](O)C[C@@H](O)CC(=O)[O-])cnc3cc(Cl)c(F)cc23)c1.[Ca+2] [Compound A11], the CHO (High: 20 mg/kg) is reported as 8.53 mmol/L, the H/L (High: 20 mg/kg) is reported as 1.33 and the HDL-C (High: 20 mg/kg) is reported as 5.06 mmol/L. The LDL-C (High: 20 mg/kg) was 4.30 mmol/L, the TG (High: 20 mg/kg) was 0.42 mmol/L and the CHO (Low: 5 mg/kg) was 11.63 mmol/L. The H/L (Low: 5 mg/kg) was 1.24, the HDL-C (Low: 5 mg/kg) was 6.32 mmol/L and the LDL-C (Low: 5 mg/kg) was 6.51 mmol/L. For the same compound, the TG (Low: 5 mg/kg) was 0.56 mmol/L and the “lipid-lowering effect (in words)” value [1] was “obvious lipid-lowering effect”.
Compound O=C([O-])C[C@H](O)C[C@H](O)/C=C/c1cnc2c(F)c(Oc3ccccc3)c(F)cc2c1Oc1ccccc1.O=C([O-])C[C@H](O)C[C@H](O)/C=C/c1cnc2c(F)c(Oc3ccccc3)c(F)cc2c1Oc1ccccc1.[Ca+2] [Compound A12, (3R,5S)-7-[6,8-difluoro-4,7-di-(phenoxy)quinoline-3-yl]-3,5-dihydroxy-6(E)-heptenoic acid hemi calcium salt] has a CHO (High: 20 mg/kg) of 6.25 mmol/L, a H/L (High: 20 mg/kg) of 2.11 and an HDL-C (High: 20 mg/kg) of 3.77 mmol/L. It also gave an LDL-C (High: 20 mg/kg) of 2.52 mmol/L, a TG (High: 20 mg/kg) of 0.97 mmol/L and a CHO (Low: 5 mg/kg) of 12.40 mmol/L. For the same compound, the H/L (Low: 5 mg/kg) was 1.43, the HDL-C (Low: 5 mg/kg) was 6.21 mmol/L and the LDL-C (Low: 5 mg/kg) was 6.75 mmol/L. For the same compound, the TG (Low: 5 mg/kg) was 0.54 mmol/L and the “lipid-lowering effect (in words)” value [1] was “obvious lipid-lowering effect”.
In the case of CC(C)c1ccc(Sc2cc3ncc(/C=C/[C@@H](O)C[C@@H](O)CC(=O)[O-])c(Sc4ccc(C(C)C)cc4)c3cc2F)cc1.CC(C)c1ccc(Sc2cc3ncc(/C=C/[C@@H](O)C[C@@H](O)CC(=O)[O-])c(Sc4ccc(C(C)C)cc4)c3cc2F)cc1.[Ca+2] [Compound A13], the CHO (High: 20 mg/kg) is reported as 8.88 mmol/L, the H/L (High: 20 mg/kg) is reported as 1.79 and the HDL-C (High: 20 mg/kg) is reported as 5.64 mmol/L. It also gave an LDL-C (High: 20 mg/kg) of 3.95 mmol/L, a TG (High: 20 mg/kg) of 0.35 mmol/L and a CHO (Low: 5 mg/kg) of 14.13 mmol/L. The H/L (Low: 5 mg/kg) was 0.92, the HDL-C (Low: 5 mg/kg) was 6.93 mmol/L and the LDL-C (Low: 5 mg/kg) was 9.23 mmol/L. The TG (Low: 5 mg/kg) was 0.56 mmol/L, the “lipid-lowering effect (in words)” value [1] was “obvious lipid-lowering effect” and the “way of reducing lipidemia (in words)” value [1] was “reduces lipidemia by lowering TG and increasing H/L ratio”.
Work on O=C([O-])C[C@H](O)C[C@H](O)/C=C/c1cnc2cc(Cl)c(F)cc2c1Oc1ccc(F)cc1.O=C([O-])C[C@H](O)C[C@H](O)/C=C/c1cnc2cc(Cl)c(F)cc2c1Oc1ccc(F)cc1.[Ca+2] [Compound A14, (3R,5S)-7-[6-fluoro-7-chloro-4-(4-fluorophenoxy)quinoline-3-yl]-3,5-dihydroxy-6(E)-heptenoic acid hemi calcium salt] yielded a CHO (High: 20 mg/kg) of 7.61 mmol/L, a H/L (High: 20 mg/kg) of 1.44 and an HDL-C (High: 20 mg/kg) of 4.66 mmol/L. It also gave an LDL-C (High: 20 mg/kg) of 3.62 mmol/L, a TG (High: 20 mg/kg) of 0.96 mmol/L and a CHO (Low: 5 mg/kg) of 11.64 mmol/L. The H/L (Low: 5 mg/kg) was 1.15, the HDL-C (Low: 5 mg/kg) was 6.63 mmol/L and the LDL-C (Low: 5 mg/kg) was 6.40 mmol/L. For the same compound, the TG (Low: 5 mg/kg) was 0.74 mmol/L and the “lipid-lowering effect (in words)” value [1] was “obvious lipid-lowering effect”.
